# Where “and” joins values, the source holds several entries; their conditions need not be identical. Equal entries are not always repeated.
# Assays:
# [1] = Bioavailability study: pharmacokinetics after single intravenous or oral dose in mouse; type: in vivo, CD-1 mice (male)
# Protocol: Studies were conducted to evaluate the pharmacokinetic profiles of Example 25 herein and Example 2 in WO 2019/040550 after single intravenous or oral dose in mouse. CD-1 mice (male) were obtained from Charles River Laboratories (Wilmington, MA).
# The pharmacokinetics of Example 25 herein and Example 2 in WO 2019/040550 were evaluated following single 1 mg/kg intravenous or oral doses in mouse. Example 25 herein and Example 2 in WO 2019/040550 were prepared as a solution in DMSO:Tween 80:PEG-400:Dextrose 5% in Water (5:5:20:70, v/v) for the IV and oral dose mouse studies. The intravenous dose was administered as a slow bolus to the penile vein under isoflurane anesthesia. The oral doses were administrated by gavage. Serial blood samples were obtained […], 0.25, 0.5, 1.0, 4, 6, 9, 12, 24, 32 and 48 hours post dosing and […]. Plasma was separated by centrifugation and stored frozen (<−15° C.) until analysis.
# HPLC-MS/MS bioanalytical methods were utilized for the quantitation of Example 25 herein and Example 2 in WO 2019/040550 concentration in plasma. The analytical methods used protein precipitation to extract compound from plasma. All samples were combined with a minimum two volume equivalents of organic solvent containing internal standard, vortexed and then centrifuged to pellet the proteins. Supernatants were used for subsequent analysis by liquid chromatography-tandem mass spectrometry (LC-MS/MS). Studies involving quantitative analysis employed spiked standards in plasma that were processed simultaneously with the samples.
# Analytes were separated using reverse phase chromatography on a C8 or C18 column prior to analysis on an API5500m (or higher) mass spectrometer with a Turbo-Ion Spray source. Peak areas were determined using Sciex Analyst™ 1.6 (or higher) software or Sound Analytics DiscoveryQuant™ 2.0 (or higher) software. Actual concentrations (when required) were calculated by regression analysis of the peak area ratio (parent/internal standard) of the spiked standards versus concentrations.
# Peak plasma concentrations (Cmax) and the time to peak plasma concentration (Tmax) were determined directly from the plasma concentration data for each animal. The compound plasma concentration data were submitted to multi-exponential curve fitting using WinNonlin software. The area under the plasma concentration-time curve from 0 to t hours after dosing (AUC0-t, t=time of the last measurable plasma concentration) was calculated using the linear trapezoidal rule. The residual area extrapolated to infinity, determined as the final measured plasma concentration (Ct) divided by the terminal plasma elimination rate constant (β), was added to the AUC0-t to produce the total area under the curve (AUC0-∞). The apparent total plasma clearance (CLp) was calculated by dividing the administered dose by the AUC0-∞. Half-life (t1/2) was determined with the following calculation: t1/2=ln (2)/elimination rate constant. The initial volume of distribution (Vc) was calculated as the dose divided by the extrapolated concentration at time=0 (C0). The volume of distribution at steady state, Vss, was estimated as a product of the total plasma clearance (CLp) and the mean residence time (MRT); the terminal-phase volume of distribution, Vβ, was derived from the total plasma clearance value (CLp) divided by the terminal plasma elimination rate constant ((3). Oral bioavailability (F) was calculated as the dose-normalized AUC0-∞ (AUC0-∞/D) from the oral dose divided by the corresponding dose normalized AUC0-∞ from intravenous dosing.
# [2] = tested on: Molt-4 cells; assay: Cell Viability Assay (CellTiter-Glo) in Molt-4 cells (counter screen); type: cell-based; conditions: 24 hours, 10% Human Serum
# Protocol: (§1) The acute lymphoblastic leukemia (ALL) human cell line RS4;11 (ATCC, Manassas VA) was used as the primary human cell line to assess the cellular activity of compound of the present Examples in vitro and their efficacy in vivo. […] The acute lymphoblastic leukemia cell line Molt-4, which is derived from immature T-lymphoid cells (T-ALL), was used as a counter screen assay.
# (§2) 3000 Cells (0.1×10^6/mL) were seeded in each well of 384-well plate and were treated for 24 hours in a humidified chamber with 5% CO2. Cell viability was determined by CellTiter-Glo as described by the manufacturer's instructions (Promega Corporation, Madison, WI, USA).
# [3] = tested on: RS4;11 cells; assay: Cell Viability Assay (CellTiter-Glo) in RS4;11 cell line; type: cell-based; conditions: 24 hours, 10% Human Serum
# Protocol: as §1, §2
structure (smiles),measurement,setting,value
"CO[C@@H]1CC[C@@H](CNc2ccc(S(=O)(=O)NC(=O)c3ccc(N4CCN5CC6=C(c7ccc(Cl)cc7)CC(C)(C)C[C@H]6OCCCOC[C@@H]5C4)cc3N3CCCOc4nc5[nH]ccc5cc43)cc2[N+](=O)[O-])OC1 [Example 25, 4-((4aS,10aR)-14-(4-chlorophenyl)-12,12-dimethyl-1,2,4a,5,8,9,10a,11,13,15-decahydro-7H,12H-benzo[f]pyrazino[2,1-c][1,8]dioxa[4]azacycloundecin-3(4H)-yl)-2-(3,4-dihydro-2H-pyrrolo[3′,2′:5,6]pyrido[2,3-b][1,4]oxazepin-1(7H)-yl)-N-((4-((((2S,5R)-5-methoxytetrahydro-2H-pyran-2-yl)methyl)amino)-3-nitrophenyl)sulfonyl)benzamide]",AUC,"[1]; IV 1 mg/kg, individual mouse",11200 ng·h/mL and 12900 ng·h/mL
same,CLp,"[1]; IV 1 mg/kg, individual mouse",1.28 mL/min/kg
same,MRT,"[1]; IV 1 mg/kg, individual mouse",10 h
same,Vβ,"[1]; IV 1 mg/kg, individual mouse",1.0 L/kg and 0.90 L/kg
same,AUC,"[1]; PO 1 mg/kg, individual mouse",4330 ng·h/mL and 4490 ng·h/mL
same,Tmax,"[1]; PO 1 mg/kg, individual mouse",4.0 h
same,t1/2,"[1]; PO 1 mg/kg, individual mouse",8.7 h and 10 h
same,Tmax,"[1]; PO 1 mg/kg, mean",4.0 h
"C[C@H]1CCC(CNc2ccc(S(=O)(=O)NC(=O)c3ccc(N4CCN5CC6=C(c7ccc(Cl)cc7)CC(C)(C)C[C@H]6OCCCOC[C@@H]5C4)cc3N3CCCOc4nc5[nH]ccc5cc43)cc2[N+](=O)[O-])OC1 (stereo partly drawn) [Example 23, 4-((4aS,10aR)-14-(4-chlorophenyl)-12,12-dimethyl-1,2,4a,5,8,9,10a,11,13,15-decahydro-7H,12H-benzo[f]pyrazino[2,1-c][1,8]dioxa[4]azacycloundecin-3(4H)-yl)-2-(3,4-dihydro-2H-pyrrolo[3′,2′:5,6]pyrido[2,3-b][1,4]oxazepin-1(7H)-yl)-N-((4-((((2R,5S)-5-methyltetrahydro-2H-pyran-2-yl)methyl)amino)-3-nitrophenyl)sulfonyl)benzamide]",EC50,[2],> 10000 nM
"CC1(C)CC(c2ccc(Cl)cc2)=C2CN3CCN(c4ccc(C(=O)NS(=O)(=O)c5ccc(NC[C@@H]6CC[C@@H](O)CO6)c([N+](=O)[O-])c5)c(N5CCCOc6nc7[nH]ccc7cc65)c4)C[C@H]3COCCCO[C@@H]2C1 [Example 27, 4-((4aS,10aR)-14-(4-chlorophenyl)-12,12-dimethyl-1,2,4a,5,8,9,10a,11,13,15-decahydro-7H,12H-benzo[f]pyrazino[2,1-c][1,8]dioxa[4]azacycloundecin-3(4H)-yl)-2-(3,4-dihydro-2H-pyrrolo[3′,2′:5,6]pyrido[2,3-b][1,4]oxazepin-1(7H)-yl)-N-((4-((((2S,5R)-5-hydroxytetrahydro-2H-pyran-2-yl)methyl)amino)-3-nitrophenyl)sulfonyl)benzamide]",EC50,[3],0.329 nM
same,EC50,[2],535 nM
"COC1(CNc2ccc(S(=O)(=O)NC(=O)c3ccc(N4CCN5CC6=C(c7ccc(Cl)cc7)CC(C)(C)C[C@H]6OCCCOC[C@@H]5C4)cc3N3CCCOc4nc5[nH]ccc5cc43)cc2[N+](=O)[O-])CCOCC1 [Example 26, 4-((4aS,10aR)-14-(4-chlorophenyl)-12,12-dimethyl-1,2,4a,5,8,9,10a,11,13,15-decahydro-7H,12H-benzo[f]pyrazino[2,1-c][1,8]dioxa[4]azacycloundecin-3(4H)-yl)-2-(3,4-dihydro-2H-pyrrolo[3′,2′:5,6]pyrido[2,3-b][1,4]oxazepin-1(7H)-yl)-N-((4-(((4-methoxytetrahydro-2H-pyran-4-yl)methyl)amino)-3-nitrophenyl)sulfonyl)benzamide]",EC50,[2],> 10000 nM

# Reference: patent US20260028356A1, “1,3,4,7-TETRAHYDRO-2H-PYRROLO[3',2':5,6]PYRIDO[2,3-B][1,4]OXAZEPINE BCL-2 INHIBITORS” (AbbVie Inc., priority 2022, published 2026)
